# From ChEMBL document CHEMBL4507294, “Data for DCP probe MSD-CYP11B2” (2021)
# How the values were obtained:
# [1] = molecular target: Cytochrome P450 11B2, mitochondrial (Homo sapiens, UniProt P19099); assay: Assay using V79 cell lines (CYP11B2); type: cell-based
# [2] = molecular target: Adenosine receptor A1 (Homo sapiens) (UniProt P30542); settings: Compound concentration 10.0 uM
# [3] = molecular target: T1, Alpha-2B adrenergic receptor (Homo sapiens, UniProt P18089); assay: Inhibition of Adrenergic alpha2B at compound concentration of 10.0 uM in the Eurofins-Panlabs radioligand binding assay (Eurofins_assay_203710); parameters: ligand concentration 2.5 nM, non-specific ligand with concentration 10 uM Prazosin, incubation time 60 min, incubation temperature 25 C
# T1 sequence (P18089 whole entry): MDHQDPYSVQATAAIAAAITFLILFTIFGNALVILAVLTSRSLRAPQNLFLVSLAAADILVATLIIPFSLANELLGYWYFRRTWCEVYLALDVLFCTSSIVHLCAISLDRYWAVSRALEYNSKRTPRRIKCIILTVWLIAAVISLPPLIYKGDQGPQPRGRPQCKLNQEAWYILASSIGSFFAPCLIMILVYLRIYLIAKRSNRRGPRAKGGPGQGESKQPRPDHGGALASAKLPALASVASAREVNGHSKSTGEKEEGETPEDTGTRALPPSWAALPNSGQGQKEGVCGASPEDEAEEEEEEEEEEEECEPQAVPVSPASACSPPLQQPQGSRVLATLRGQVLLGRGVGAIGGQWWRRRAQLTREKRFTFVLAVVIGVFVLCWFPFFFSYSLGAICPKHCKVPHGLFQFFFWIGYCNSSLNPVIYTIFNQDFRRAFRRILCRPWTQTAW
# [4] = molecular target: Estrogen receptor (Homo sapiens) (UniProt P03372); settings: Compound concentration 10.0 uM
# [5] = molecular target: Alpha-2A adrenergic receptor (Homo sapiens, UniProt P08913); assay: GPCRScan assay: inhibition of Alpha2A; parameters: radioligand conc. used [nm] 1.0 – 3.0, parental cells stable MDCK
# [6] = molecular target: Gamma-aminobutyric acid type B receptor subunit 1 (Homo sapiens) (UniProt Q9UBS5); settings: Rattus norvegicus; Compound concentration 10.0 uM
# [7] = molecular target: T1, Alpha-2B adrenergic receptor; assay: GPCRScan assay: inhibition of Alpha2B; parameters: radioligand conc. used [nm] 1.5 – 2.0, parental cells HEKT
# [8] = molecular target: Neuropeptide Y receptor type 1 (Homo sapiens) (UniProt P25929); assay: Inhibition of Neuropeptide Y Y1 at 10 µM in the Eurofins-Panlabs radioligand binding assay (Eurofins_assay_257010); settings: Compound concentration 10.0 uM
# [9] = molecular target: Peroxisome proliferator-activated receptor gamma (Homo sapiens) (UniProt P37231); assay: PPARgamma Eurofins-Panlabs radioligand binding assay; parameters: ligand concentration 5 nM, non-specific ligand with concentration 0.5 µM L-797773, incubation time 18 h, incubation temperature 15 °C; settings: Compound concentration 10.0 uM
# [10] = species on record: Rattus norvegicus; assay: Glutamate, NMDA, Polyamine Eurofins-Panlabs radioligand binding assay; type: protein-complex assay; parameters: ligand concentration 2 nM; settings: Compound concentration 10.0 uM
# [11] = species on record: Rattus norvegicus; assay: Inhibition of Glutamate, NMDA, Phencyclidine at 10 µM in the Eurofins-Panlabs radioligand binding assay (Eurofins_assay_233000); type: protein-complex assay; settings: Compound concentration 10.0 uM
# [12] = molecular target: Adenosine receptor A2a (Homo sapiens) (UniProt P29274); settings: Compound concentration 10.0 uM
# [13] = molecular target: Muscarinic acetylcholine receptor M3 (Homo sapiens) (UniProt P20309); settings: Compound concentration 10.0 uM
# [14] = molecular target: 5-hydroxytryptamine receptor 2B (Homo sapiens, UniProt P41595)
# [15] = molecular target: T2, Muscarinic acetylcholine receptor M2 (Homo sapiens) (UniProt P08172); settings: Compound concentration 10.0 uM
# T2 sequence (whole entry): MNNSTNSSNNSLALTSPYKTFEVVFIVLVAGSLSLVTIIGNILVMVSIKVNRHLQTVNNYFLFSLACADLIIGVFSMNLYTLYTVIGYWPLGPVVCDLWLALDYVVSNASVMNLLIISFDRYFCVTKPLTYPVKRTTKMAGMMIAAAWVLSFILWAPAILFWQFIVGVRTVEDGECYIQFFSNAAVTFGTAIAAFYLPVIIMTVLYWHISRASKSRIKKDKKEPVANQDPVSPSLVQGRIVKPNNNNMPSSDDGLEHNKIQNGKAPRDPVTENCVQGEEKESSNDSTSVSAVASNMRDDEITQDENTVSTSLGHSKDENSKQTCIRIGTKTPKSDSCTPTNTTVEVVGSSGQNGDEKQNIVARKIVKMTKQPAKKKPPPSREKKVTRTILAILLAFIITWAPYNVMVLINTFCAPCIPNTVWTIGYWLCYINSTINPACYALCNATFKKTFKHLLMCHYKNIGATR
# [16] = molecular target: T3, Alpha-2B adrenergic receptor (Homo sapiens) (UniProt P18089)
# T3 sequence (whole entry): T1 sequence (P18089 whole entry)
# [17] = molecular target: Melanocyte-stimulating hormone receptor (Homo sapiens) (UniProt Q01726); assay: Melanocortin MC1 Eurofins-Panlabs radioligand binding assay; settings: Compound concentration 10.0 uM
# [18] = molecular target: T4, 5-hydroxytryptamine receptor 3A (Homo sapiens) (UniProt P46098); assay: Inhibition of Serotonin (5-Hydroxytryptamine) 5-HT3 at 10 µM in the Eurofins-Panlabs radioligand binding assay (Eurofins_assay_271910); parameters: ligand concentration 0.69 nM; settings: Compound concentration 10.0 uM
# T4 sequence (whole entry): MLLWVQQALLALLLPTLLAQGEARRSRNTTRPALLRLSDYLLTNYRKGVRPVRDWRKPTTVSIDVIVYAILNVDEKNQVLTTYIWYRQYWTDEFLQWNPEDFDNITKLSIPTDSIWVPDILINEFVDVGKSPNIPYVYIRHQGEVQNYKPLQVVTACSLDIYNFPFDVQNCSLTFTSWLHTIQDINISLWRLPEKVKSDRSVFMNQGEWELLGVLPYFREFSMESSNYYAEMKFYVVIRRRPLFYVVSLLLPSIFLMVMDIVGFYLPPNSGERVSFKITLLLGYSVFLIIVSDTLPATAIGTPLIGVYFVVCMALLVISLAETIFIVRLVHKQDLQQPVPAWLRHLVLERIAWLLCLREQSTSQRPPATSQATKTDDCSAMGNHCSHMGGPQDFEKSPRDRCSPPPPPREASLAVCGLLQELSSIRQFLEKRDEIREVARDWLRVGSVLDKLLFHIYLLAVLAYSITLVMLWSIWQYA
# [19] = molecular target: Alpha-1A adrenergic receptor (Homo sapiens) (UniProt P35348); settings: Compound concentration 10.0 uM
# [20] = molecular target: Alpha-1D adrenergic receptor (Homo sapiens) (UniProt P25100); settings: Compound concentration 10.0 uM
# [21] = molecular target: D(1A) dopamine receptor (Homo sapiens) (UniProt P21728); settings: Compound concentration 10.0 uM
# [22] = species on record: Rattus norvegicus; assay: GABAA, Ro-15-1788, Hippocampus Eurofins-Panlabs radioligand binding assay; parameters: ligand concentration 1 nM; settings: Compound concentration 10.0 uM
# Chain of 5-hydroxytryptamine receptor 2B (P41595 whole entry): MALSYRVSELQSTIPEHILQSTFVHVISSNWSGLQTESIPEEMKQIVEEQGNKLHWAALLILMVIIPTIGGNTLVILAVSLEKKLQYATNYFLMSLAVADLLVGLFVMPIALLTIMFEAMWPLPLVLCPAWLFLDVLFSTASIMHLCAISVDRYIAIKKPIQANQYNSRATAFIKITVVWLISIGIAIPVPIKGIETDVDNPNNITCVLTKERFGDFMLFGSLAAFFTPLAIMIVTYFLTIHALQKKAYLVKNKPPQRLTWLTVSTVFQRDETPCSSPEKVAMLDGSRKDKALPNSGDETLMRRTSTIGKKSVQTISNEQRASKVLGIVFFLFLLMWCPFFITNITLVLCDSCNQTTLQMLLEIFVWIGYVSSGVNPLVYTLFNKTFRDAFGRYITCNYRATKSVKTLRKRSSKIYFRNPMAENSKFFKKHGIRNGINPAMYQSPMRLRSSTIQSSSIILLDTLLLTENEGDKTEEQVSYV
# Chain of Peroxisome proliferator-activated receptor gamma (Homo sapiens) (P37231 whole entry): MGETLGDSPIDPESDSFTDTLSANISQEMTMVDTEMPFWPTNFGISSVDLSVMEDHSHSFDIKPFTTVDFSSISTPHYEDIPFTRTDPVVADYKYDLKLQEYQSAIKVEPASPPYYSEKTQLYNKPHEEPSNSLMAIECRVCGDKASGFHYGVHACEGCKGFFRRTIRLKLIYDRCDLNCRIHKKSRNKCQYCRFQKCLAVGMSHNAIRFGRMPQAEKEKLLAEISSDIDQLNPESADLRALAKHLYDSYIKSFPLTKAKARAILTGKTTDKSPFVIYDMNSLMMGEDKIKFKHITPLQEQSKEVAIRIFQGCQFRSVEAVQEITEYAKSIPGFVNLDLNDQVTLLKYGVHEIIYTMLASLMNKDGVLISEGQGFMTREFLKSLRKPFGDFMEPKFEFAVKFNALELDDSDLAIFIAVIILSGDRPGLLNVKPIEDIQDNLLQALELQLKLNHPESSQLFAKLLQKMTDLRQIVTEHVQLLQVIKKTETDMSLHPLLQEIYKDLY
# Chain of D(1A) dopamine receptor (Homo sapiens) (P21728 whole entry): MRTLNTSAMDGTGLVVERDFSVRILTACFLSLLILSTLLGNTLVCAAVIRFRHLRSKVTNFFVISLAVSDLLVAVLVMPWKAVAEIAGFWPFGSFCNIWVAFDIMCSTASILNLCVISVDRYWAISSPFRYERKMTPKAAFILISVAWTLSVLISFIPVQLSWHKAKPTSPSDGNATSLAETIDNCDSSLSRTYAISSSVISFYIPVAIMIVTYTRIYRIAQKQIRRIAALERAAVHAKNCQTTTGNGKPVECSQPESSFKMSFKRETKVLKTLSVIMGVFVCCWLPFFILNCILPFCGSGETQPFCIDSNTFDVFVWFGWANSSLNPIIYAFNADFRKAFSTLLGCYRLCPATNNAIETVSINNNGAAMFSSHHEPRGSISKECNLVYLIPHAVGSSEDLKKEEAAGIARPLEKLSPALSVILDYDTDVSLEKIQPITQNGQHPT
# Chain of Melanocyte-stimulating hormone receptor (Homo sapiens) (Q01726 whole entry, looked up): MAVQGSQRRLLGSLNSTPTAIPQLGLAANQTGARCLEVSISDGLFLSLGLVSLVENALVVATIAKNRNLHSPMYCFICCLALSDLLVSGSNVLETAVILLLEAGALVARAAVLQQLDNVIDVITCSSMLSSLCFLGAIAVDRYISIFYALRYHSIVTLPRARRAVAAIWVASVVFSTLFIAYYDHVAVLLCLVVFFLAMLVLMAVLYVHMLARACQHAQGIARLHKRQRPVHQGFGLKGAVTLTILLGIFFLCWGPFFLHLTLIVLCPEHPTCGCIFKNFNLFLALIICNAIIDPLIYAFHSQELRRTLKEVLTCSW
# Chain of Alpha-1A adrenergic receptor (Homo sapiens) (P35348 whole entry): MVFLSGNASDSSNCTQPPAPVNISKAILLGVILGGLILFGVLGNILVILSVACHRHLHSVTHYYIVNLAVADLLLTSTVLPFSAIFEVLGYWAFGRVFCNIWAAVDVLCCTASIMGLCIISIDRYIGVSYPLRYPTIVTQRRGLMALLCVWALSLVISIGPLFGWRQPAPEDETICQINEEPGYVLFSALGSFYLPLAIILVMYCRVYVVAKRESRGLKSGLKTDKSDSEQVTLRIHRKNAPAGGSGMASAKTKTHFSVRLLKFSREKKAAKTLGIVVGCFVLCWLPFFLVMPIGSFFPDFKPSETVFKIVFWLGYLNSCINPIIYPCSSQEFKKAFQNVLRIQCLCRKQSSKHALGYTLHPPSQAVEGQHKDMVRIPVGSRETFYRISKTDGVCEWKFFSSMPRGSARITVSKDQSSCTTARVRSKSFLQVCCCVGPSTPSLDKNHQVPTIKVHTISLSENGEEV
# Chain of Adenosine receptor A2a (Homo sapiens) (P29274 whole entry): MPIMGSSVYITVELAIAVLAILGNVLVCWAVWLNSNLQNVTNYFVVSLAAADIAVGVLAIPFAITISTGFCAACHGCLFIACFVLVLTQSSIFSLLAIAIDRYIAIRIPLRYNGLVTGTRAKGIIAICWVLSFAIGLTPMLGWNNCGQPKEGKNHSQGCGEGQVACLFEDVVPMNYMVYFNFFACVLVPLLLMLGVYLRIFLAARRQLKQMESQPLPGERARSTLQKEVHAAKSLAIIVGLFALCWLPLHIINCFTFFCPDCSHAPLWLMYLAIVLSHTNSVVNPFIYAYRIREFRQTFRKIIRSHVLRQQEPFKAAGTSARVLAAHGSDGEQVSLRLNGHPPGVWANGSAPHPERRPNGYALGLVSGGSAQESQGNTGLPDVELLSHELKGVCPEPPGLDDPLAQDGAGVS
# Chain of Muscarinic acetylcholine receptor M3 (Homo sapiens) (P20309 whole entry, looked up): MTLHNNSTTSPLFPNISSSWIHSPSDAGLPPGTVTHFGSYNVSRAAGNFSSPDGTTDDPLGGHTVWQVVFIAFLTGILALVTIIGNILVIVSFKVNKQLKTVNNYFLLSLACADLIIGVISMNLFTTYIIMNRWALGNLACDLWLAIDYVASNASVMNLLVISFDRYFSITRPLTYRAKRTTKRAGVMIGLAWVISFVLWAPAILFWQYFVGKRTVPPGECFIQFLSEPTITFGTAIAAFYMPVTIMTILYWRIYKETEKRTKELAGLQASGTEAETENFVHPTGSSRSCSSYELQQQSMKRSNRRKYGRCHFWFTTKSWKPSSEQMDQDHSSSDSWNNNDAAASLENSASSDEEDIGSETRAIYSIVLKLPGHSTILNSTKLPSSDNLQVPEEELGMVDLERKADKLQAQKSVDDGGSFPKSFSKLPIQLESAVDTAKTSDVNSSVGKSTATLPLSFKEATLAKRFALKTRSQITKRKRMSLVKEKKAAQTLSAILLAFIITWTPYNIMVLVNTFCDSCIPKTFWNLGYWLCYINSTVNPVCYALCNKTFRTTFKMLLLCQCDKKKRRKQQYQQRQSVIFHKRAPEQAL
# Chain of Alpha-1D adrenergic receptor (Homo sapiens) (P25100 whole entry): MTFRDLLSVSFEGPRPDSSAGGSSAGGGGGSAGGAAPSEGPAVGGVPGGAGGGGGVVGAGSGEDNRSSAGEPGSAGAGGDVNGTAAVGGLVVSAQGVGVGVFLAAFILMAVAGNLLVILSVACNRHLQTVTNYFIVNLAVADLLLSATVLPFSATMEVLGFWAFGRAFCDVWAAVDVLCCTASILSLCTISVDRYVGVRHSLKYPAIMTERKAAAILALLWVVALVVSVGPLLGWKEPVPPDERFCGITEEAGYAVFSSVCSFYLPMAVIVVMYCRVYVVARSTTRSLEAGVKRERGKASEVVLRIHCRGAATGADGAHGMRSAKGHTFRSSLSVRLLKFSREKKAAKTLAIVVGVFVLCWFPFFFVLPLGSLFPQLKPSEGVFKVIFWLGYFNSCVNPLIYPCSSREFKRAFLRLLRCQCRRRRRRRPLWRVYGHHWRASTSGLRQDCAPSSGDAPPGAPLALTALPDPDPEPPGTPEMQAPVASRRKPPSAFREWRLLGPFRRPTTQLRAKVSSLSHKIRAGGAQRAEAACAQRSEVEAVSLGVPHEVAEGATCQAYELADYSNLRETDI
# Chain of Cytochrome P450 11B2, mitochondrial (P19099 whole entry): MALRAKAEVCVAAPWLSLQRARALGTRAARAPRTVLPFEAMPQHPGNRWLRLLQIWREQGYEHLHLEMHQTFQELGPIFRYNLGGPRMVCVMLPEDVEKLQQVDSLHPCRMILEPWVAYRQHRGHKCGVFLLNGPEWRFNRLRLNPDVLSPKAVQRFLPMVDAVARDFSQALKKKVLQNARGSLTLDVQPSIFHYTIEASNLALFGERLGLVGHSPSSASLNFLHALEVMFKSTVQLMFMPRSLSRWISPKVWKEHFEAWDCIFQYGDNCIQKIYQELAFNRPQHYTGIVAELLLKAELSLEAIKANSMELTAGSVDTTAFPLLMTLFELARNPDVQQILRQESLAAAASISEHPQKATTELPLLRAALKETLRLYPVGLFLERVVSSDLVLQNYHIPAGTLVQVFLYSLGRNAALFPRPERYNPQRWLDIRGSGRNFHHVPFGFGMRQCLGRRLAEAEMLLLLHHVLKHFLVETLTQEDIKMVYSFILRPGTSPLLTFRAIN
# Chain of Estrogen receptor (Homo sapiens) (P03372 whole entry): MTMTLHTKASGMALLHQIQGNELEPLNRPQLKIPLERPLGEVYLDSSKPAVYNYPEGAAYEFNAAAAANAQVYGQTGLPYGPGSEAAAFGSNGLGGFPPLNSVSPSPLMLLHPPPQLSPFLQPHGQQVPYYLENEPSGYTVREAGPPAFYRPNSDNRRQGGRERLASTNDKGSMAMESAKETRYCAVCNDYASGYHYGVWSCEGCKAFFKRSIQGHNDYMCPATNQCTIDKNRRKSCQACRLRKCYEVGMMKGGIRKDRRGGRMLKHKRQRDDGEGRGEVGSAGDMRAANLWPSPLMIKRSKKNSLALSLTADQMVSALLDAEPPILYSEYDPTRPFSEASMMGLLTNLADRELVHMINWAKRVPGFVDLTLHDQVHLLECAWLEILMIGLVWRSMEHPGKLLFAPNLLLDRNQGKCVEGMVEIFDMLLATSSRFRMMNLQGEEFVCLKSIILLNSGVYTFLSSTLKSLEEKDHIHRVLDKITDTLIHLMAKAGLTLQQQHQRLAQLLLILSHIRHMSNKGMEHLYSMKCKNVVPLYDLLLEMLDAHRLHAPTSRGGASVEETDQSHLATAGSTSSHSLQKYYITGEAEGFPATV
smiles,measurement,setting,value
FC(F)(F)c1ccc2c(c1)nc(-c1cccnc1)n2C1CC1 [MSD-CYP11B2-Negative-control],IC50,[1],> 10000 nM (not active)
CC(C)(O)c1cncc(-c2nc3ccc(F)cc3n2C2CC2)c1 [MSD-CYP11B2],inhibition,[2],20%
same,IC50,[3],4700 nM
same,Ki,[3],2150 nM
same,inhibition,[4],1%
same,Ki,[5],2610 nM
same,inhibition,[6],6%
same,Ki,[7],1440 nM
same,inhibition,[8],11%
same,inhibition,[9],8%
same,inhibition,[10],-3%
same,inhibition,[11],3%
same,inhibition,[12],-5%
same,inhibition,[13],2%
same,inhibition,[14]; Compound concentration 0.01 uM,-2%
same,inhibition,[14]; Compound concentration 0.1 uM,-5%
same,inhibition,[14]; Compound concentration 1.0 uM,17%
same,inhibition,[14]; Compound concentration 10.0 uM,65%
same,inhibition,[15],6%
same,inhibition,[16]; Compound concentration 0.1 uM,9%
same,inhibition,[16]; Compound concentration 1.0 uM,20%
same,inhibition,[16]; Compound concentration 10.0 uM,65%
same,inhibition,[17],-1%
same,inhibition,[18],-4%
same,inhibition,[19],-3.03%
same,inhibition,[20],2.58%
same,inhibition,[21],-1%
same,inhibition,[22],12%
